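Each compound was tested at five concentrations against cells in 96-well plates for 48 hours. TGI marks complete inhibition of growth.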
Key:
Test in all cases: DTP human tumour cell line panel, 48 h
SNB-19 CNS = test system: SNB-19 CNS
SW-620 colon = test system: SW-620 colon
OVCAR-8 ovarian = test system: OVCAR-8 ovarian
SR leukemia = test system: SR leukemia
NCI-H226 lung = test system: NCI-H226 lung
SF-295 CNS = test system: SF-295 CNS
MCF7 breast = test system: MCF7 breast
NCI-H522 lung = test system: NCI-H522 lung
EKVX NSCLC = test system: EKVX NSCLC
UACC-62 melanoma = test system: UACC-62 melanoma
SN12C renal = test system: SN12C renal
U251 CNS = test system: U251 CNS
ACHN renal = test system: ACHN renal
SK-MEL-28 melanoma = test system: SK-MEL-28 melanoma
HL-60(TB) leukemia = test system: HL-60(TB) leukemia
UO-31 renal = test system: UO-31 renal
HCT-15 colon = test system: HCT-15 colon
CAKI-1 renal = test system: CAKI-1 renal
OVCAR-3 ovarian = test system: OVCAR-3 ovarian
HCC-2998 colon = test system: HCC-2998 colon
RXF 393 renal = test system: RXF 393 renal
MOLT-4 leukemia = test system: MOLT-4 leukemia
SK-MEL-2 melanoma = test system: SK-MEL-2 melanoma
NCI-H23 lung = test system: NCI-H23 lung
SF-268 CNS = test system: SF-268 CNS
A498 renal = test system: A498 renal
HT29 colon = test system: HT29 colon
DU-145 prostate = test system: DU-145 prostate
MALME-3M melanoma = test system: MALME-3M melanoma
TK-10 renal = test system: TK-10 renal
HS 578T breast = test system: HS 578T breast
BT-549 breast = test system: BT-549 breast
SNB-75 CNS = test system: SNB-75 CNS
CCRF-CEM leukemia = test system: CCRF-CEM leukemia
M14 melanoma = test system: M14 melanoma
T-47D breast = test system: T-47D breast
SF-539 CNS = test system: SF-539 CNS
LOX IMVI melanoma = test system: LOX IMVI melanoma
HOP-62 NSCLC = test system: HOP-62 NSCLC
786-0 renal = test system: 786-0 renal
A549 NSCLC = test system: A549 NSCLC
OVCAR-4 ovarian = test system: OVCAR-4 ovarian
UACC-257 melanoma = test system: UACC-257 melanoma
OVCAR-5 ovarian = test system: OVCAR-5 ovarian
MDA-N = test system: MDA-N
SK-OV-3 ovarian = test system: SK-OV-3 ovarian
HOP-92 NSCLC = test system: HOP-92 NSCLC
KM12 colon = test system: KM12 colon
MDA-MB-231 breast = test system: MDA-MB-231 breast
NCI-H460 lung = test system: NCI-H460 lung
K-562 leukemia = test system: K-562 leukemia
HCT-116 colon = test system: HCT-116 colon
PC-3 prostate = test system: PC-3 prostate
MDA-MB-435 = test system: MDA-MB-435
SK-MEL-5 melanoma = test system: SK-MEL-5 melanoma
NCI/ADR-RES ovarian = test system: NCI/ADR-RES ovarian
COLO 205 colon = test system: COLO 205 colon
RPMI-8226 leukemia = test system: RPMI-8226 leukemia
IGROV1 ovarian = test system: IGROV1 ovarian

Work on `CCSSCS(C)(=O)=O` yielded a TGI (SNB-19 CNS) greater than 100 µM, a TGI (SW-620 colon) greater than 100 µM and a TGI (OVCAR-8 ovarian) of 57.4 µM. For the same compound, the TGI (SR leukemia) was greater than 100 µM, the TGI (NCI-H226 lung) was 96.4 µM and the TGI (SF-295 CNS) was greater than 100 µM. The TGI (MCF7 breast) was 68.5 µM, the TGI (NCI-H522 lung) was 40 µM and the TGI (EKVX NSCLC) was greater than 100 µM. It also gave a TGI (UACC-62 melanoma) greater than 100 µM, a TGI (SN12C renal) of 67.8 µM and a TGI (U251 CNS) greater than 100 µM. It also gave a TGI (ACHN renal) greater than 100 µM, a TGI (SK-MEL-28 melanoma) greater than 100 µM and a TGI (HL-60(TB) leukemia) greater than 100 µM. For the same compound, the TGI (UO-31 renal) was 24.4 µM, the TGI (HCT-15 colon) was 32.9 µM and the TGI (CAKI-1 renal) was greater than 100 µM. The TGI (OVCAR-3 ovarian) was 99.2 µM, the TGI (HCC-2998 colon) was 34.7 µM and the TGI (RXF 393 renal) was 49.5 µM. For the same compound, the TGI (MOLT-4 leukemia) was greater than 100 µM, the TGI (SK-MEL-2 melanoma) was greater than 100 µM and the TGI (NCI-H23 lung) was 98 µM. It also gave a TGI (SF-268 CNS) greater than 100 µM, a TGI (A498 renal) of 96.2 µM and a TGI (HT29 colon) greater than 100 µM. It also gave a TGI (DU-145 prostate) of 50.5 µM, a TGI (MALME-3M melanoma) greater than 100 µM and a TGI (TK-10 renal) greater than 100 µM. For the same compound, the TGI (HS 578T breast) was greater than 100 µM, the TGI (BT-549 breast) was 96.5 µM and the TGI (SNB-75 CNS) was 72.6 µM. The TGI (CCRF-CEM leukemia) was greater than 100 µM, the TGI (M14 melanoma) was 55.3 µM and the TGI (T-47D breast) was greater than 100 µM. For the same compound, the TGI (SF-539 CNS) was 29.5 µM, the TGI (LOX IMVI melanoma) was greater than 100 µM and the TGI (HOP-62 NSCLC) was greater than 100 µM. For the same compound, the TGI (786-0 renal) was 21.4 µM, the TGI (A549 NSCLC) was greater than 100 µM and the TGI (OVCAR-4 ovarian) was 40 µM. The TGI (UACC-257 melanoma) was 57.1 µM, the TGI (OVCAR-5 ovarian) was greater than 100 µM and the TGI (MDA-N) was greater than 100 µM. For the same compound, the TGI (SK-OV-3 ovarian) was greater than 100 µM, the TGI (HOP-92 NSCLC) was 73.5 µM and the TGI (KM12 colon) was greater than 100 µM. It also gave a TGI (MDA-MB-231 breast) greater than 100 µM, a TGI (NCI-H460 lung) greater than 100 µM and a TGI (K-562 leukemia) of 27.2 µM. For the same compound, the TGI (HCT-116 colon) was greater than 100 µM, the TGI (PC-3 prostate) was greater than 100 µM and the TGI (MDA-MB-435) was greater than 100 µM. The TGI (SK-MEL-5 melanoma) was greater than 100 µM, the TGI (NCI/ADR-RES ovarian) was 83.8 µM and the TGI (COLO 205 colon) was 23.5 µM.
`C=CCNC1=C2C[C@@H](C)C[C@@H](OC)C(OC(=O)CCCN(C)C)[C@H](C)/C=C(\C)[C@@H](OC(N)=O)[C@H](OC)/C=C\C=C(/C)C(=O)NC(=CC1=O)C2=O` (stereo partly specified) showed a TGI (SNB-19 CNS) of 28.9 µM, a TGI (SW-620 colon) of 16.9 µM and a TGI (OVCAR-8 ovarian) of 16 µM. The TGI (SR leukemia) was 8.97 µM, the TGI (NCI-H226 lung) was 29.4 µM and the TGI (SF-295 CNS) was 20.5 µM. The TGI (MCF7 breast) was 12.1 µM, the TGI (NCI-H522 lung) was 20.5 µM and the TGI (EKVX NSCLC) was 26.1 µM. It also gave a TGI (UACC-62 melanoma) of 26 µM, a TGI (SN12C renal) of 12.6 µM and a TGI (U251 CNS) of 26.6 µM. For the same compound, the TGI (ACHN renal) was 20.6 µM, the TGI (SK-MEL-28 melanoma) was 27.4 µM and the TGI (HL-60(TB) leukemia) was 20.2 µM. The TGI (UO-31 renal) was 26.6 µM, the TGI (HCT-15 colon) was 19.4 µM and the TGI (CAKI-1 renal) was 25.2 µM. The TGI (OVCAR-3 ovarian) was 11.7 µM, the TGI (HCC-2998 colon) was 17.6 µM and the TGI (RXF 393 renal) was 18.6 µM. For the same compound, the TGI (MOLT-4 leukemia) was 39.1 µM, the TGI (SK-MEL-2 melanoma) was 25.5 µM and the TGI (NCI-H23 lung) was 20.8 µM. The TGI (SF-268 CNS) was 27.6 µM, the TGI (A498 renal) was 26.9 µM and the TGI (HT29 colon) was 12.1 µM. For the same compound, the TGI (DU-145 prostate) was 18.1 µM, the TGI (MALME-3M melanoma) was 14.4 µM and the TGI (TK-10 renal) was 25.1 µM. The TGI (RPMI-8226 leukemia) was 44.3 µM, the TGI (HS 578T breast) was 41.7 µM and the TGI (BT-549 breast) was 27.6 µM. The TGI (SNB-75 CNS) was 22.9 µM, the TGI (CCRF-CEM leukemia) was 31.3 µM and the TGI (M14 melanoma) was 20.7 µM. The TGI (T-47D breast) was 24.7 µM, the TGI (SF-539 CNS) was 19.3 µM and the TGI (LOX IMVI melanoma) was 21.7 µM. The TGI (HOP-62 NSCLC) was 21.5 µM, the TGI (786-0 renal) was 24.8 µM and the TGI (A549 NSCLC) was 14.6 µM. It also gave a TGI (OVCAR-4 ovarian) of 26.3 µM, a TGI (UACC-257 melanoma) of 27.5 µM and a TGI (OVCAR-5 ovarian) of 28.5 µM. For the same compound, the TGI (MDA-N) was 19.8 µM, the TGI (SK-OV-3 ovarian) was 12.6 µM and the TGI (HOP-92 NSCLC) was 34.9 µM. The TGI (KM12 colon) was 14.6 µM, the TGI (MDA-MB-231 breast) was 17.5 µM and the TGI (NCI-H460 lung) was 13.9 µM. For the same compound, the TGI (K-562 leukemia) was greater than 100 µM, the TGI (HCT-116 colon) was 20.4 µM and the TGI (IGROV1 ovarian) was 21.7 µM. The TGI (PC-3 prostate) was 17.2 µM, the TGI (MDA-MB-435) was 26 µM and the TGI (SK-MEL-5 melanoma) was 8.73 µM. It also gave a TGI (NCI/ADR-RES ovarian) of 52.1 µM and a TGI (COLO 205 colon) of 6.5 µM.

Reference: PubChem BioAssay (NCI)
